The record followed here is BindingDB's records for doi:10.1016/j.bmcl.2003.11.078 (Virginia Commonwealth University, 2004).

This experiment is described as follows: Binding affinity at imidazoline receptor I-1 of rat.

With `Brc1cccc2c3c([nH]c12)CNCC3` [8-Bromo-2,3,4,9-tetrahydro-1H-beta-carboline], the affinity, expressed as Ki, was 3.74 µM.
